The values that follow are results of earlier work, collected in US20170246117A1, “INJECTABLE MICROPARTICLES FOR HYPER-LOCALIZED RELEASE OF THERAPEUTIC AGENTS” (priority 2014, published 2017).

For series [1] the following is noted: 40 mg, human subjects; Derendorf et al. 1986; FIG. 7.
The conditions of series [2]: reported, Mollmann et al. 1998.

For `CC(C)(C)CC(=O)OCC(=O)[C@@]12OC(C)(C)O[C@@H]1C[C@H]1[C@@H]3CCC4=CC(=O)C=C[C@]4(C)[C@@]3(F)[C@@H](O)C[C@@]12C` [triamcinolone hexacetonide], the “release profile after intra-articular administration” value in series [1] is listed as “significant initial burst followed by rapid decline”.

As a reminder, the EC50 is the concentration at which the effect is half-maximal. `CCC(=O)O[C@]1(C(=O)SCF)[C@H](C)C[C@H]2[C@@H]3C[C@H](F)C4=CC(=O)C=C[C@]4(C)[C@@]3(F)[C@@H](O)C[C@@]21C` [fluticasone propionate]: the EC50 in series [2] is 0.007 to 0.03 ng/mL.
